Where two headings read alike, the source gives them in different places.
Tests used:
Format in all cases: cell-based
[1] = test system: LNCaP/AR cells; test: Inhibition of the proliferation of LNCap/AR cells (CCK-8); details: read-out: LNCap/AR IC50
Method in brief: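 Proliferation was read by CCK-8 (OD 450 nm, 1 h) after six days of compound exposure. Cells were seeded at 1000 per well overnight, then dosed in duplicate over nine 3-fold steps with a top final concentration of 10 μM in 0.1% DMSO; IC50 was fitted from inhibition curves.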

[2] = test system: 22RV1 cells; test: Inhibition of the proliferation of drug-resistant prostate cancer cell 22RV1 (CCK-8); details: 22RV1 cells (enzalutamide-resistant), same method
Method in brief: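 22RV1 cells, 1000/well in RPMI1640 with 10% FBS, treated in duplicate with 9-point 3-fold dilutions from 10 μM (0.1% DMSO final). After 6 days at 37 °C, CCK-8 added for 1 h and OD450 read. IC50 from dose-response inhibition fit.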

[3] = test system: Androgen receptor (AR); test: Down-regulation/degradation of AR determined by Western blot in CWR22RV1 cells; details: concentration 100 nM, 24 h
Protocol: (§1) The Down-Regulation on the Protein Expression of Androgen Receptors AR and Brd4 Determined by Western Blot CWR22RV1 cells (National Collection of Authenticated Cell Cultures. TCHu100) FBS (Gibco, Cat. No. 10099-141) 0.01M PBS (Biosharp. Cat. No. 162262) RIPM1640 (Hyclone, Cat. No. 308090.01) Penicillin-Streptomycin (Hyclone. Cat. No. SV30010) DMSO (Sigma. Cat. No. D5879) Centrifuge tube, 15 ml (Excell Bio. Cat. No. CS015-0001) Cell culture plate (Excell Bio. Cat. No. CS016-0128) 6-well cell culture cluster (Corning, Cat. No. 3516) RIPA lysate buffer (Beyotime, Cat. No. P0013B) Protein loading buffer (Beyotime, Cat. No. P0015L) CA protein assay kit (Beyotime, Cat. No. P0012) SDS-PAGE gel preparation kit (Chengdu Baihe Technology Co., Ltd. Cat. No. PG112) Anti-β-tubulin mouse mAb (Zen Bioscience, Cat. No. 200608) Androgen Receptor ([…]) XP Rabbit mAb (CST. Cat. No. 5153) Anti-cMyc(D3N8F) Rabbit mAb (CST. Cat. No. 13987) Anti-BRD4(E2A7X) rabbit mAb (CST, Cat. No. 13440) Peroxidase Affinipure(HRP) Goat Anti-Mouse IgG (Zen Bioscience, Cat. No. 511103) Peroxidase Affinipure(HRP) Goat Anti-Rabbit IgG (Zen Bioscience, Cat. No. 511203) TBST (Biosharp. Cat. No. B[…]) ECL chemiluminescence kit (Beyotime, Cat. No. […]1 cells were subcultured in cell culture media, and then the cells in good growth condition were seeded in a 6-well plate at 2 ml/well (1×10^6 cells/well), and cultured overnight in a 37° C., 5% CO2 cell incubator. 2) The drug was prepared as a 10 mM stock solution with dimethyl sulfoxide (DMSO). […] The plate was gently tapped to thoroughly mix. In addition, the experiment included negative control wells (containing equal amount of DMSO) and positive control wells. 3) After culturing 24 hi, the cells were lysed with RIPA cell lysate, and the protein was extracted. […] The first antibody (Androgen Receptor ([…]) XP Rabbit mAb. Anti-cMyc(D3N8F) Rabbit mAb, Anti-BRD4(E2A7X) rabbit mAb and Anti-β-Tubulin Mouse mAb) was added and incubated overnight at 4° C. The membrane was rinsed with TBST solution three times, 10 min for each time. The secondary antibody (horseradish peroxidase labeled goat anti mouse IgG) was added and incubated at room temperature for 2 h, and then the membrane was washed with TBST solution three times, 10 m for each time. Finally. ECL chemiluminescence solution was added, and then photos were taken with automatic chemiluminescence instrument to collect pictures for analysis.

[4] = target: T1, BRD4 (Homo sapiens, UniProt O60885); test: Down-regulation/degradation of BRD4 determined by Western blot in CWR22RV1 cells; details: concentration 100 nM, 24 h
T1 construct: CWR22RV1 cells were subcultured in cell culture media; endogenous in cells; host or cells: CWR22RV1 cells
Protocol: as §1

[5] = 144 h, LNCaP/AR cells, 6 days culture, CCK-8
[6] = LNCaP/AR cells, 6 days culture, CCK-8

Cc1ccc(-c2c(C)noc2C)cc1N(CC1CCN(C2CN(c3cc4c(cc3F)CN(C3CCC(=O)NC3=O)C4=O)C2)CC1)c1ccc(C2(C#N)CC2)cc1 (stereo not shown) [Compound 159]
IC50 [1, 5]: < 100 nM | IC50 ([2]; Homo sapiens): < 100 nM | AR (% degradation) [3]: C (49%-20% of the target protein was degraded) | BRD4 (% degradation) [4]: B (79%-50% of the target protein was degraded)

Cc1ccc(-c2c(C)noc2C)cc1N(CC1CCN(CCNc2ccc3c(c2)C(=O)N(C2CCC(=O)NC2=O)C3=O)CC1)c1ccc(C2(C#N)CC2)cc1 (stereo not shown) [Compound 117]
IC50 [1, 5]: 501 to 2000 nM | IC50 ([2]; Homo sapiens): < 100 nM | AR (% degradation) [3]: D (<20% of the target protein was degraded) | BRD4 (% degradation) [4]: B (79%-50% of the target protein was degraded)

Cc1ccc(-c2c(C)noc2C)cc1N(C[C@H]1CC[C@H](CNc2cc3c(cc2F)C(=O)N(C2CCC(=O)NC2=O)C3)CC1)c1ccc(C#N)c(Cl)c1 (stereo partly shown) [Compound 135]
IC50 [1, 6]: < 100 nM | IC50 [2]: < 100 nM | AR (% degradation) [3]: C (49%-20% of the target protein was degraded) | BRD4 (% degradation) [4]: A (>80% of the target protein was degraded)

Cc1ccc(-c2c(C)noc2C)cc1N(C[C@H]1CC[C@H](CNc2ccc3c(c2)C(=O)N(C2CCC(=O)NC2=O)C3)CC1)c1ccc(C2(C#N)CC2)cc1 (stereo partly shown) [Compound 193]
IC50 [1, 5]: < 100 nM | IC50 ([2]; Homo sapiens): < 100 nM | AR (% degradation) [3]: D (<20% of the target protein was degraded) | BRD4 (% degradation) [4]: B (79%-50% of the target protein was degraded)

Cc1ccc(-c2c(C)noc2C)cc1N(CC1(COC2CN(c3ccc4c(c3)C(=O)N(C3CCC(=O)NC3=O)C4=O)C2)CC1)c1ccc(C2(C#N)CC2)cc1 (stereo not shown) [Compound 137, 1-(4-((5-(3,5-Dimethylisoxazol-4-yl)-2-methylphenyl)((1-(((1-(2-(2,6-dioxopiperidin-3-yl)-1,3-dioxoisoindolin-5-yl)azetidin-3-yl)oxy)methyl)cyclopropyl)methyl)amino)phenyl)cyclopropane-1-nitrile]
IC50 [1, 5]: > 2000 nM | IC50 ([2]; Homo sapiens): > 2000 nM | AR (% degradation) [3]: C (49%-20% of the target protein was degraded) | BRD4 (% degradation) [4]: B (79%-50% of the target protein was degraded)

Cc1ccc(-c2c(C)noc2C)cc1N(C[C@H]1CC[C@H](CNc2cc3c(cc2F)CN(C2CCC(=O)NC2=O)C3=O)CC1)c1ccc(C2(C#N)CC2)cc1 (stereo partly shown) [Compound 168]
IC50 [1, 5]: < 100 nM | IC50 ([2]; Homo sapiens): < 100 nM | AR (% degradation) [3]: C (49%-20% of the target protein was degraded) | BRD4 (% degradation) [4]: A (>80% of the target protein was degraded)

Cc1ccc(-c2c(C)noc2C)cc1N(CCCCNc1ccc2c(c1)C(=O)N(C1CCC(=O)NC1=O)C2=O)c1ccc(C#N)c(Cl)c1 (stereo not shown) [Compound 165, 2-Chloro-4-((5-(3,5-dimethylisoxazol-4-yl)-2-methylphenyl)(4-((2-(2,6-dioxopiperidin-3)-1,3-dioxyisoindolin-5-yl)amino)butyl)amino)benzonitrile]
IC50 ([1]; LNCaP/AR, 144 h): 501 to 2000 nM | IC50 ([2]; Homo sapiens): > 2000 nM | AR (% degradation) [3]: C (49%-20% of the target protein was degraded) | BRD4 (% degradation) [4]: A (>80% of the target protein was degraded)

Cc1ccc(-c2c(C)noc2C)cc1N(C[C@H]1CC[C@H](CNc2ccc3c(c2)CN(C2CCC(=O)NC2=O)C3=O)CC1)c1ccc(C2(C#N)CC2)cc1 (stereo partly shown) [Compound 194]
IC50 [1, 5]: 101 to 500 nM | IC50 ([2]; Homo sapiens): < 100 nM | AR (% degradation) [3]: D (<20% of the target protein was degraded) | BRD4 (% degradation) [4]: D (<20% of the target protein was degraded)

Cc1ccc(-c2c(C)noc2C)cc1N(CC1CCN(c2cc3c(cc2F)CN(C2CCC(=O)NC2=O)C3=O)CC1)c1ccc(C2(C#N)CC2)cc1 (stereo not shown) [Compound 127, 1-(4-((5-(3,5-dimethylisoxazol-4-yl)-2-methylphenyl)((1-(2-(2,6-dioxopiperidin-3-yl)-6-fluoro-3-oxoisoindolin-5-yl)piperidin-4-yl)methyl)amino)phenyl)cyclopropane-1-nitrile]
IC50 [1, 5]: 101 to 500 nM | IC50 ([2]; Homo sapiens): 101 to 500 nM | AR (% degradation) [3]: D (<20% of the target protein was degraded) | BRD4 (% degradation) [4]: B (79%-50% of the target protein was degraded)

Cc1ccc(-c2c(C)noc2C)cc1N(CCCOC1CN(c2cc3c(cc2F)C(=O)N(C2CCC(=O)NC2=O)C3)C1)c1ccc(C2(C#N)CC2)cc1 (stereo not shown) [Compound 124, 1-(4-((5-(3,5-dimethylisoxazol-4-yl)-2-methylphenyl)(3-((1-(2-(2,6-dioxopiperidin-3-yl)-6-fluoro-1-oxoisoindolin-5-yl)azetidin-3-yl)oxy)propyl)amino)phenyl)cyclopropane-1-nitrile]
IC50 [1, 5]: 101 to 500 nM | IC50 ([2]; Homo sapiens): < 100 nM | AR (% degradation) [3]: B (79%-50% of the target protein was degraded) | BRD4 (% degradation) [4]: B (79%-50% of the target protein was degraded)

Cc1ccc(-c2c(C)noc2C)cc1N(C[C@H]1CC[C@H](CNc2cc3c(cc2F)C(=O)N(C2CCC(=O)NC2=O)C3)CC1)c1ccc(C2(C#N)CC2)cc1 (stereo partly shown) [Compound 169]
IC50 [1, 5]: 101 to 500 nM | IC50 ([2]; Homo sapiens): < 100 nM | AR (% degradation) [3]: C (49%-20% of the target protein was degraded) | BRD4 (% degradation) [4]: B (79%-50% of the target protein was degraded)

Cc1ccc(-c2c(C)noc2C)cc1N(C[C@H]1CC[C@H](CNc2ccc3c(c2)C(=O)N(C2CCC(=O)NC2=O)C3=O)CC1)c1ccc(C2(C#N)CC2)cc1 (stereo partly shown) [Compound 149]
IC50 [1, 5]: < 100 nM | IC50 ([2]; Homo sapiens): < 100 nM | AR (% degradation) [3]: A (>80% of the target protein was degraded) | BRD4 (% degradation) [4]: A (>80% of the target protein was degraded)

Cc1ccc(-c2c(C)noc2C)cc1N(c1ccc(C2(C#N)CC2)cc1)C1CN([C@H]2C[C@@H](Nc3cc4c(cc3F)CN([C@H]3CCC(=O)NC3=O)C4=O)C2)C1 [Compound 68, 1-(4-((5-(3,5-dimethylisoxazol-4-yl)-2-methylphenyl)(1-((1s,3s)-3-((2-(2,6-dioxopiperidin-3-yl)-6-fluoro-3-oxoisoindolin-5-yl)amino)cyclobutyl)azetidin-3-yl)amino)phenyl)cyclopropane-1-nitrile]
IC50 [1, 6]: < 100 nM | IC50 [2]: < 100 nM | AR (% degradation) [3]: D (<20% of the target protein was degraded) | BRD4 (% degradation) [4]: A (>80% of the target protein was degraded)

Cc1ccc(-c2c(C)noc2C)cc1N(CC1CN(C2CN(c3cc4c(cc3F)C(=O)N(C3CCC(=O)NC3=O)C4)C2)C1)c1ccc(C2(C#N)CC2)cc1 (stereo not shown) [Compound 157]
IC50 [1, 5]: < 100 nM | IC50 ([2]; Homo sapiens): < 100 nM | AR (% degradation) [3]: B (79%-50% of the target protein was degraded) | BRD4 (% degradation) [4]: A (>80% of the target protein was degraded)

Cc1ccc(-c2c(C)noc2C)cc1N(CCCOC1(C)CN(c2ccc3c(c2)C(=O)N(C2CCC(=O)NC2=O)C3=O)C1)c1ccc(C2(C#N)CC2)cc1 (stereo not shown) [Compound 140]
IC50 [1, 5]: 501 to 2000 nM | IC50 ([2]; Homo sapiens): 101 to 500 nM | AR (% degradation) [3]: D (<20% of the target protein was degraded) | BRD4 (% degradation) [4]: C (49%-20% of the target protein was degraded)

Cc1ccc(-c2c(C)noc2C)cc1N(CCCNc1ccc2c(c1)C(=O)N(C1CCC(=O)NC1=O)C2=O)c1ccc(C2(C#N)CC2)cc1 (stereo not shown) [Compound 172, 1-(4-((5-(3,5-Dimethylisoxazol-4-yl)-2-methylphenyl)(3-((2-(2,6-dioxopiperidin-3-yl)-1,3-dioxoisoindolin-5-yl)amino)propyl)amino)phenyl)cyclopropane-1-nitrile]
IC50 [1, 5]: 501 to 2000 nM | IC50 ([2]; Homo sapiens): 101 to 500 nM | AR (% degradation) [3]: D (<20% of the target protein was degraded) | BRD4 (% degradation) [4]: D (<20% of the target protein was degraded)
